Data: US8802597B2, “Herbicidal pyrimidines” (E I du Pont de Nemours and Company, priority 2003, dated 2014)

Key:
Assay type in all cases: in vivo
[1] = system: Surinam grass (Brachiaria decumbens); test: Test B pre/postemergence; conditions: for Surinam Grass plant response rating: Postemergence; for Plant response rating, Surinam Grass: Preemergence
Procedure, shortened: (§1)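 Compounds in non-phytotoxic solvent with surfactant applied preemergence to planted seeds or postemergence to plants 2 to 18 cm tall (1- to 4-leaf stage). Greenhouse 13 to 15 days, then visual rating against controls on a 0 to 100 scale (100 = complete control).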

[2] = system: barnyardgrass (Echinochloa crus-galli); test: Test B pre/postemergence; conditions: for Barnyardgrass plant response rating: Postemergence; for Plant response rating, Barnyardgrass: Preemergence
Procedure, shortened: as §1

[3] = system: cocklebur (Xanthium strumarium); test: Test B pre/postemergence; conditions: for Cocklebur plant response rating: Postemergence; for Plant response rating, Cocklebur: Preemergence
Procedure, shortened: as §1

corn (Zea mays) = test: Test B pre/postemergence; conditions: scale 0 to 100 (0 no effect, 100 complete control); for Corn plant response rating: Postemergence
Procedure, shortened: as §1

[4] = system: crabgrass (Digitaria sanguinalis); test: Test B pre/postemergence; conditions: for Crabgrass plant response rating: Postemergence; for Plant response rating, Crabgrass: Preemergence
Procedure, shortened: as §1

[5] = system: giant foxtail (Setaria faberii); test: Test B pre/postemergence; conditions: for Foxtail, Giant plant response rating: Postemergence; for Plant response rating, Foxtail, Giant: Preemergence
Procedure, shortened: as §1

[6] = system: lambsquarters (Chenopodium album); test: Test B pre/postemergence; conditions: scale 0 to 100 (0 no effect, 100 complete control); for Lambsquarters plant response rating: Postemergence
Procedure, shortened: as §1

[7] = system: morningglory (Ipomoea coccinea); test: Test B pre/postemergence; conditions: for Morningglory plant response rating: Postemergence; for Plant response rating, Morningglory: Preemergence
Procedure, shortened: as §1

[8] = system: pigweed (Amaranthus retroflexus); test: Test B pre/postemergence; conditions: for Pigweed plant response rating: Postemergence; for Plant response rating, Pigweed: Preemergence
Procedure, shortened: as §1

[9] = system: velvetleaf (Abutilon theophrasti); test: Test B pre/postemergence; conditions: for Velvetleaf plant response rating: Postemergence; for Plant response rating, Velvetleaf: Preemergence
Procedure, shortened: as §1

[10] = system: wheat (Triticum aestivum); test: Test B pre/postemergence; conditions: for Wheat plant response rating: Postemergence; for Plant response rating, Wheat: Preemergence
Procedure, shortened: as §1

[11] = system: blackgrass (Alopecurus myosuroides); test: Test B postemergence; conditions: scale 0 to 100 (0 no effect, 100 complete control)
Procedure, shortened: as §1

wild oat (Avena fatua) = test: Test B postemergence; conditions: scale 0 to 100 (0 no effect, 100 complete control)
Procedure, shortened: as §1

[12] = system: barnyardgrass (Echinochloa crus-galli); test: Test B flooded paddy test; conditions: Flood, scale 0 to 100
Procedure, shortened: (§2)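 Visual injury scoring (0 = no effect, 100 = complete control) versus controls made 13 to 15 days after treatment in the greenhouse. Test species were grown in flooded paddy to the 2-leaf stage: rice, barnyardgrass, umbrella sedge, duck salad.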

[13] = system: duck salad (Heteranthera limosa); test: Test B flooded paddy test; conditions: Flood, scale 0 to 100
Procedure, shortened: as §2

rice (Oryza sativa) = test: Test B flooded paddy test; conditions: Flood, scale 0 to 100
Procedure, shortened: as §2

[14] = system: umbrella sedge (Cyperus difformis); test: Test B flooded paddy test; conditions: Flood, scale 0 to 100
Procedure, shortened: as §2

[15] = 62 g ai/ha, scale 0 to 100 (0 no effect, 100 complete control)
[16] = 125 g ai/ha, scale 0 to 100 (0 no effect, 100 complete control)
[17] = 62 g ai/ha, scale 0 to 100, 0 no effect, 100 complete control

## COC(=O)c1nc(-c2ccc(Br)cc2)nc(N)c1Br [Compound 129]
[1]; [15]
  Surinam Grass plant response rating: 50
[1]; [16]
  Surinam Grass plant response rating: 70
  Plant response rating, Surinam Grass: 10
[1]; [17]
  Plant response rating, Surinam Grass: 0
[2]; [15]
  Barnyardgrass plant response rating: 60
[2]; [16]
  Barnyardgrass plant response rating: 70
  Plant response rating, Barnyardgrass: 30
[2]; [17]
  Plant response rating, Barnyardgrass: 10
[3]; [15]
  Cocklebur plant response rating: 70
[3]; [16]
  Cocklebur plant response rating: 100
  Plant response rating, Cocklebur: 30
[3]; [17]
  Plant response rating, Cocklebur: 10
Corn (Zea mays); 62 g ai/ha
  Corn plant response rating: 70
Corn (Zea mays); 125 g ai/ha
  Corn plant response rating: 80
Corn (Zea mays); Preemergence, 125 g ai/ha
  Plant response rating, Corn: 0
[4]; [15]
  Crabgrass plant response rating: 50
[4]; [16]
  Crabgrass plant response rating: 70
  Plant response rating, Crabgrass: 30
[4]; [17]
  Plant response rating, Crabgrass: 10
[5]; [15]
  Foxtail, Giant plant response rating: 40
[5]; [16]
  Foxtail, Giant plant response rating: 50
  Plant response rating, Foxtail, Giant: 0
[5]; [17]
  Plant response rating, Foxtail, Giant: 0
[6]; 62 g ai/ha
  Lambsquarters plant response rating: 100
[6]; 125 g ai/ha
  Lambsquarters plant response rating: 100
[6]; Preemergence, 125 g ai/ha
  Plant response rating, Lambsquarters: 80
[7]; [15]
  Morningglory plant response rating: 50
[7]; [16]
  Morningglory plant response rating: 100
  Plant response rating, Morningglory: 0
[7]; [17]
  Plant response rating, Morningglory: 0
[8]; [15]
  Pigweed plant response rating: 100
[8]; [16]
  Pigweed plant response rating: 100
  Plant response rating, Pigweed: 90
[8]; [17]
  Plant response rating, Pigweed: 80
[9]; [15]
  Velvetleaf plant response rating: 80
[9]; [16]
  Velvetleaf plant response rating: 90
  Plant response rating, Velvetleaf: 60
[9]; [17]
  Plant response rating, Velvetleaf: 50
[10]; [15]
  Wheat plant response rating: 0
[10]; [16]
  Wheat plant response rating: 20
  Plant response rating, Wheat: 20
[10]; [17]
  Plant response rating, Wheat: 0
[11]; 62 g ai/ha
  Blackgrass plant response rating: 70
[11]; 125 g ai/ha
  Blackgrass plant response rating: 70
Wild oat (Avena fatua); 62 g ai/ha
  Oat, Wild plant response rating: 0
Wild oat (Avena fatua); 125 g ai/ha
  Oat, Wild plant response rating: 40
[12]; 125 g ai/ha
  Plant response rating, Barnyardgrass: 0
[12]; 500 g ai/ha
  Plant response rating, Barnyardgrass: 20
[13]; 125 g ai/ha
  Plant response rating, Ducksalad: 100
[13]; 500 g ai/ha
  Plant response rating, Ducksalad: 100
Rice (Oryza sativa); 125 g ai/ha
  Plant response rating, Rice: 0
Rice (Oryza sativa); 500 g ai/ha
  Plant response rating, Rice: 0
[14]; 125 g ai/ha
  Plant response rating, Sedge, Umbrella: 90
[14]; 500 g ai/ha
  Plant response rating, Sedge, Umbrella: 100
